Experimental data reported in patent publication US7445765B2, “Radiopharmaceutical for diagnostic imaging containing a technetium-99m nitride heterocomplex” (Nihon Medi-Physics Co., Ltd., priority 2000, dated 2008).

What was measured:
[1] = Biodistribution of the 99mTc(N) heterocomplexes in rats (organ uptake, heart accumulation, heart/lung and heart/liver ratios); format: in vivo, female Sprague-Dawley rats
Outline: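 Female Sprague-Dawley rats (200–250 g, n=3), ketamine/xylazine anaesthesia, got 300–370 kBq of each purified heterocomplex in pH 7.4 phosphate buffer (10% ethanol) via the jugular vein. They were killed at several post-injection times. Heart blood and washed, weighed organs were gamma-counted, taking whole blood as 6.5% of body weight.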

[2] = Measurement of Log k′ by HPLC, PNP5 or PNP6 heterocomplexes; format: physicochemical; conditions: HPLC C18, methanol/phosphate buffer (pH 7.4, 0.02M), 1.0 mL/min; extrapolated to 0% organic solvent
Description: Log k′o values, measured at various compositions of the mobile phase, were determind for the ^99mTc(N) heterocomplexes obtained using PNP5 or PNP6 as a bisphosphinoamine compound. The analysis of the relationship between Log k′o values and the mobile-phase composition yielded extrapolated Log k′ values as a measure of the partitioning between the hydrophobic stationary phase and water. The Log k′ values were extrapolated from the linear part of the curve.
TLC chromatography was carried out on silica-gel plates and using the mixture ethanol/chloroform/toluene/[NH4][CH3COO] (0.5 M) (5:3:3:0.5) as mobile phase. […] HPLC analysis was performed on a Beckman System Gold instrument equipped with a Programmable Solvent Module 126, a scanning detector Module 166 and a radioisotope detector Module 170. A C18 reversed-phase precolumn (Ultrasphere Beckman, 4.6×45 mm), a C18 reversed-phase column (Ultrasphere Beckman, 4.6×250 mm) and a 100-μL loop were used. The mobile phase was methanol in various mixtures (% v/v) with a phosphate buffer (pH=7.4, 0.02M) at a flow rate of 1.0 mL min^−1. Before injection, all solutions were purified using a CM Sep-Pak cartridge. […]

CCOCCN1CC[P](CCCOC)(CCCOC)[99Tc+]2(#[N])([S]C(N(CCOCC)CCOCC)=[S]2)[P](CCCOC)(CCCOC)CC1 [[^99mTc(N) (PNP5) (DBODC)]^+]
Biodistribution in rats: Adrenal glands ([1]; 0 min post injection): 2.87 % dose/g | Biodistribution in rats: Blood ([1]; 0 min post injection): 6.65 % dose/g | Biodistribution in rats: Brain ([1]; 0 min post injection): 0.45 % dose/g | Biodistribution in rats: Heart ([1]; 0 min post injection): 5.01 % dose/g | Biodistribution in rats: Intestine ([1]; 0 min post injection): 1.71 % dose/g | Biodistribution in rats: Kidneys ([1]; 0 min post injection): 3.71 % dose/g | Biodistribution in rats: Liver ([1]; 0 min post injection): 0.82 % dose/g | Biodistribution in rats: Lungs ([1]; 0 min post injection): 6.58 % dose/g | Biodistribution in rats: Muscle ([1]; 0 min post injection): 0.09 % dose/g | Biodistribution in rats: Spleen ([1]; 0 min post injection): 1.75 % dose/g | Biodistribution in rats: Submax. glands ([1]; 0 min post injection): 0.16 % dose/g | Biodistribution in rats: Adrenal glands ([1]; 2 min post injection): 3.95 % dose/g | Biodistribution in rats: Blood ([1]; 2 min post injection): 0.11 % dose/g | Biodistribution in rats: Brain ([1]; 2 min post injection): 0.03 % dose/g | Biodistribution in rats: Heart ([1]; 2 min post injection): 3.94 % dose/g | Biodistribution in rats: Intestine ([1]; 2 min post injection): 7.97 % dose/g | Biodistribution in rats: Kidneys ([1]; 2 min post injection): 14.69 % dose/g | Biodistribution in rats: Liver ([1]; 2 min post injection): 2.66 % dose/g | Biodistribution in rats: Lungs ([1]; 2 min post injection): 0.99 % dose/g | Biodistribution in rats: Muscle ([1]; 2 min post injection): 0.20 % dose/g | Biodistribution in rats: Spleen ([1]; 2 min post injection): 2.68 % dose/g | Biodistribution in rats: Submax. glands ([1]; 2 min post injection): 1.77 % dose/g | Biodistribution in rats: Adrenal glands ([1]; 10 min post injection): 3.73 % dose/g | Biodistribution in rats: Blood ([1]; 10 min post injection): 0.03 % dose/g | Biodistribution in rats: Brain ([1]; 10 min post injection): 0.01 % dose/g | Biodistribution in rats: Heart ([1]; 10 min post injection): 3.69 % dose/g | Biodistribution in rats: Intestine ([1]; 10 min post injection): 9.04 % dose/g | Biodistribution in rats: Kidneys ([1]; 10 min post injection): 9.16 % dose/g | Biodistribution in rats: Liver ([1]; 10 min post injection): 1.61 % dose/g | Biodistribution in rats: Lungs ([1]; 10 min post injection): 0.88 % dose/g | Biodistribution in rats: Muscle ([1]; 10 min post injection): 0.21 % dose/g | Biodistribution in rats: Spleen ([1]; 10 min post injection): 1.79 % dose/g | Biodistribution in rats: Submax. glands ([1]; 10 min post injection): 1.79 % dose/g | Biodistribution in rats: Adrenal glands ([1]; 20 min post injection): 3.00 % dose/g | Biodistribution in rats: Blood ([1]; 20 min post injection): 0.02 % dose/g | Biodistribution in rats: Brain ([1]; 20 min post injection): 0.01 % dose/g | Biodistribution in rats: Heart ([1]; 20 min post injection): 3.63 % dose/g | Biodistribution in rats: Intestine ([1]; 20 min post injection): 9.63 % dose/g | Biodistribution in rats: Kidneys ([1]; 20 min post injection): 6.58 % dose/g | Biodistribution in rats: Liver ([1]; 20 min post injection): 0.96 % dose/g | Biodistribution in rats: Lungs ([1]; 20 min post injection): 0.57 % dose/g | Biodistribution in rats: Muscle ([1]; 20 min post injection): 0.17 % dose/g | Biodistribution in rats: Spleen ([1]; 20 min post injection): 1.41 % dose/g | Biodistribution in rats: Submax. glands ([1]; 20 min post injection): 1.57 % dose/g | Biodistribution in rats: Adrenal glands ([1]; 30 min post injection): 3.36 % dose/g | Biodistribution in rats: Blood ([1]; 30 min post injection): 0.02 % dose/g | Biodistribution in rats: Brain ([1]; 30 min post injection): 0.01 % dose/g | Biodistribution in rats: Heart ([1]; 30 min post injection): 3.73 % dose/g | Biodistribution in rats: Intestine ([1]; 30 min post injection): 6.70 % dose/g | Biodistribution in rats: Kidneys ([1]; 30 min post injection): 6.70 % dose/g | Biodistribution in rats: Liver ([1]; 30 min post injection): 0.72 % dose/g | Biodistribution in rats: Lungs ([1]; 30 min post injection): 0.64 % dose/g | Biodistribution in rats: Muscle ([1]; 30 min post injection): 0.19 % dose/g | Biodistribution in rats: Spleen ([1]; 30 min post injection): 0.92 % dose/g | Biodistribution in rats: Submax. glands ([1]; 30 min post injection): 1.88 % dose/g | Biodistribution in rats: Adrenal glands ([1]; 60 min post injection): 4.17 % dose/g | Biodistribution in rats: Blood ([1]; 60 min post injection): 0.01 % dose/g | Biodistribution in rats: Brain ([1]; 60 min post injection): 0.01 % dose/g | Biodistribution in rats: Heart ([1]; 60 min post injection): 3.76 % dose/g | Biodistribution in rats: Intestine ([1]; 60 min post injection): 6.52 % dose/g | Biodistribution in rats: Kidneys ([1]; 60 min post injection): 5.73 % dose/g | Biodistribution in rats: Liver ([1]; 60 min post injection): 0.20 % dose/g | Biodistribution in rats: Lungs ([1]; 60 min post injection): 0.46 % dose/g | Biodistribution in rats: Muscle ([1]; 60 min post injection): 0.21 % dose/g | Biodistribution in rats: Spleen ([1]; 60 min post injection): 0.41 % dose/g | Biodistribution in rats: Submax. glands ([1]; 60 min post injection): 1.84 % dose/g | Biodistribution in rats: Adrenal glands ([1]; 120 min post injection): 3.44 % dose/g | Biodistribution in rats: Blood ([1]; 120 min post injection): 0.01 % dose/g | Biodistribution in rats: Brain ([1]; 120 min post injection): 0.00 % dose/g | Biodistribution in rats: Heart ([1]; 120 min post injection): 3.31 % dose/g | Biodistribution in rats: Intestine ([1]; 120 min post injection): 6.57 % dose/g | Biodistribution in rats: Kidneys ([1]; 120 min post injection): 3.48 % dose/g | Biodistribution in rats: Liver ([1]; 120 min post injection): 0.10 % dose/g | Biodistribution in rats: Lungs ([1]; 120 min post injection): 0.25 % dose/g | Biodistribution in rats: Muscle ([1]; 120 min post injection): 0.23 % dose/g | Biodistribution in rats: Spleen ([1]; 120 min post injection): 0.21 % dose/g | Biodistribution in rats: Submax. glands ([1]; 120 min post injection): 2.09 % dose/g | LOG k′ [2]: 3.69
